A value given as a limit tells only on which side of the number the result lay.

The values below come from US20160024051A1, “SALTS AND SOLID FORMS OF ISOQUINOLINONES AND COMPOSITION COMPRISING AND METHODS OF USING THE SAME” (INFINITY PHARMACEUTICALS, INC., priority 2013, published 2016).

Data set [1] in a line: Storage at 40° C./75% RH (elevated humidity) for 1 week, re-analysis by XRPD/HPLC. As to conditions: for Storage 40° C./75% RH: salt screen solids, 1 week, XRPD pattern or observation.
Experimental: The crystalline solids were filtered, dried at ambient conditions, and stored at 40° C./75% RH for 1 week and analyzed by ^1H NMR/IC.
Samples from the screen using amorphous free base Compound 1 were analysed by ^1H-NMR and DSC, and re-analysis by XRPD was also carried out after drying at 50° C./vacuum and storage at 40° C./75% RH (the same sample was dried and stored at elevated humidity).
Data set [2] is described as follows: Polymorphism study: maturation (temperature cycling RT to 50° C.) in solvents, XRPD. It counts as physicochemical. Here is the method: One of 21 solvents was added to each vial in a number of aliquots (up to 30 volumes), with shaking. All the samples were then placed under maturation between RT to 50° C. (4 hours at each temperature) for 3 days. After maturation the samples were analysed by XRPD. Clear solutions were cooled to −20° C. (freezer). If no precipitation occurred samples were evaporated at RT.
Samples were placed under maturation between RT-50° C. (4 hours cycle) for 3 days. After maturation the samples were analyzed by XRPD. Clear solutions were then cooled to −20° C. (freezer). If no precipitation occurred, samples were evaporated at RT.
The corresponding solvents and solvent mixtures were added in portions of (a total of) 5, 10, 20, and 30 volumes at 50° C., with shaking, aiming for clear solutions. After each addition, the vials were allowed to shake for 20 minutes, after which observations were made. Solutions were allowed to evaporate, whereas slurries were set for 8 hour temperature cycling maturation, between RT and 50° C., for 5 days.
The oils obtained by solvent evaporation were used for the maturation screen. Anhydrous solvents (5 volumes; 100 μL) were used in order to minimise the amount of water present. Any solutions were allowed to slowly evaporate, whereas slurries were set for 8 hour temperature cycling maturation, between RT and 50° C. […] These were matured for a further 24 hours before performing XRPD analysis.
The selected solvents and solvent mixtures (5 to 20 volumes) were added with stirring. Any solutions were allowed to slowly evaporate, whereas slurries were set for 8 hour temperature cycling maturation, between RT and 50° C., for 2 days.
Crystals were ground in order to analyse them by XRPD. Suspensions were set for temperature cycling for a total of five days after which time XRPD analysis was carried out.

Data set [3] in a line: Gravimetric vapour sorption (GVS). It counts as physicochemical. As to conditions: for GVS: moisture on loading: loaded at 40% RH, 25° C.; for GVS: XRPD after the experiment: re-analysis by XRPD after GVS. How it is done:
Sorption isotherms were obtained using a Hiden IGASorp moisture sorption analyser, controlled by CFRSorp software. The sample temperature was maintained at 25° C. by a Huber re-circulating water bath. The humidity was controlled by mixing streams of dry and wet nitrogen, with a total flow rate of 250 ml/min. The relative humidity (RH) was measured by a calibrated Vaisala RH probe (dynamic range of 0-95% RH), located near the sample. The weight change, (mass relaxation) of the sample as a function of % RH was constantly monitored by the microbalance (accuracy ±0.001 mg). Typically 10-20 mg of sample was placed in a tared mesh stainless steel basket under ambient conditions. The sample was loaded and unloaded at 40% RH and 25° C. (typical room conditions). A moisture sorption isotherm was performed as outlined below (2 scans giving 1 complete cycle). The standard isotherm was performed at 25° C. at 10% RH intervals over a 0-90% RH range.
The software uses a least squares minimisation procedure together with a model of the mass relaxation, to predict an asymptotic value. The measured mass relaxation value must be within 5% of that predicted by the software, before the next % RH value is selected. The minimum equilibration time was set to 1 hour and the maximum to 4 hours. The sample was recovered after completion of the isotherm and re-analysed by XRPD.

The nature of data set [4]: Solubility assessment using FB Hydrate Form 2. It counts as physicochemical. The conditions noted are these: for Solubility: (RT). How it is done: The best solvent systems (clear solutions) were methanol:anisole 1:1 and DMSO (10 volumes, at RT), dioxane (10 volumes, 50° C.), chloroform (20 volumes, RT). […]
A short description of data set [5]: Solubility of free base hydrate and salts versus pH (Table 24). It counts as physicochemical.

As for `COc1cc(-c2cccc3cc([C@H](C)Nc4nc(N)ncc4C#N)n(-c4ccccc4)c(=O)c23)ccn1` [listing 1 of 2 here], in data set [1] (listed as 1-2-Ethane disulfonic acid), the “Storage 40° C./75% RH” value is recorded as “acid salt Pattern 1”.
In the case of `COc1cc(-c2cccc3cc([C@H](C)Nc4nc(N)ncc4C#N)n(-c4ccccc4)c(=O)c23)ccn1` [listing 2 of 2 here], in data set [1] (listed as 2-Hydroxyethane sulfonic acid), the “Storage 40° C./75% RH” value is listed as “Deliquesced”.
For `COc1cc(-c2cccc3cc([C@H](C)Nc4nc(N)ncc4C#N)n(-c4ccccc4)c(=O)c23)ccn1.O=S(=O)(O)O.O=S(=O)(O)O` [Amorphous Bis-Sulfuric Acid Salt], the XRPD entry in data set [2] (amorphous oil in anhydrous BuOAc 100 μL, maturation 48 h, RT-50° C. cycling) was “Amorphous”; in data set [2] (amorphous oil in anhydrous DCM 100 μL, maturation 48 h, RT-50° C. cycling) it was “Amorphous”; in data set [2] (amorphous oil in anhydrous DIPE 100 μL, maturation 48 h, RT-50° C. cycling) it was “Amorphous”; in data set [2] (amorphous oil in anhydrous Dioxane 100 μL, maturation 48 h, RT-50° C. cycling), “Amorphous glass”; in data set [2] (amorphous oil in anhydrous EtOAc 100 μL, maturation 48 h, RT-50° C. cycling), “Amorphous”; in data set [2] (amorphous oil in anhydrous IPA 100 μL, maturation 48 h, RT-50° C. cycling), “Amorphous glass”. Besides, the XRPD entry in data set [2] (amorphous oil in anhydrous Methanol 100 μL, solution set for evaporation) is on record as “Oil”; in data set [2] (amorphous oil in anhydrous TBME 100 μL, maturation 48 h, RT-50° C. cycling) it was “Amorphous”; in data set [2] (amorphous oil in anhydrous THF 100 μL, maturation 48 h, RT-50° C. cycling), “Amorphous”; in data set [2] (amorphous oil in anhydrous Toluene 100 μL, maturation 48 h, RT-50° C. cycling), “Amorphous”.
Consider `CC(=O)O.COc1cc(-c2cccc3cc([C@H](C)Nc4nc(N)ncc4C#N)n(-c4ccccc4)c(=O)c23)ccn1.COc1cc(-c2cccc3cc([C@H](C)Nc4nc(N)ncc4C#N)n(-c4ccccc4)c(=O)c23)ccn1` [Batch 1 of Form 6], for which the “GVS: second cycle reversible moisture uptake” value in data set [3] (between 0-90% RH) is reported as “cycle shows 4.9%”. Moreover, in data set [3], the “GVS: moisture on loading” value was determined as 6.3% w/w moisture on and the “GVS: XRPD after the experiment” value was “anhydrous Form 4”.
On to `COc1cc(-c2cccc3cc([C@H](C)Nc4nc(N)ncc4C#N)n(-c4ccccc4)c(=O)c23)ccn1.O` [FB Hydrate Form 2], for which the “Solubility at 50° C.” value in data set [4] (2-MeTHF, 50 vols) is listed as “✓”; in data set [4] (DCM, 75 vols), “✓”; in data set [4] (DCM:MeOH 1:1, 75 vols) it was “✓”; in data set [4] (Dioxane, 10 vols) it was “✓”; in data set [4] (MeCN/5% water, 75 vols), “✓”; in data set [4] (THF, 50 vols) it was “Almost”. Besides, in data set [4] (THF, 75 vols), the “Solubility at 50° C.” value is listed as “✓”. Also, the Solubility entry in data set [4] (DMSO, 10 vols) is reported as “✓”; in data set [4] (MeOH/anisole, 10 vols) it was “✓”; in data set [4] (chloroform, 20 vols), “✓”. Further, the XRPD entry in data set [2] (FB Hydrate Form 2 in 1-butanol, Maturation) is on record as “Crystalline Form 5”; in data set [2] (FB Hydrate Form 2 in 2-MeTHF, Evaporation yielded oil, maturation of oil), “Crystalline Form 5”; in data set [2] (FB Hydrate Form 2 in Acetone, Maturation), “Crystalline Form 5”; in data set [2] (FB Hydrate Form 2 in DCM:MeOH 1:1, Crystallization in fridge), “Crystalline Form 5 + Form 1”; in data set [2] (FB Hydrate Form 2 in DCM, Crystallization in fridge), “Crystalline Form 5”; in data set [2] (FB Hydrate Form 2 in DMSO, No crystallization in fridge, set for evaporation), “Amorphous”. Also, the XRPD entry is “Crystalline Form 5 + Form 3” in data set [2] (FB Hydrate Form 2 in Dioxane, Evaporation yielded oil, maturation of oil); “Crystalline Form 5” in data set [2] (FB Hydrate Form 2 in EtOAc, Maturation); “Crystalline Form 5” in data set [2] (FB Hydrate Form 2 in EtOH/5% water, Maturation); “Crystalline Form 2” in data set [2] (FB Hydrate Form 2 in EtOH/water 1:1, Maturation); “Crystalline Form 5” in data set [2] (FB Hydrate Form 2 in EtOH, Maturation); “Crystalline Form 5” in data set [2] (FB Hydrate Form 2 in IPA, Maturation). Further, the XRPD result in data set [2] (FB Hydrate Form 2 in IPAc, Maturation) was “Crystalline Form 5”; in data set [2] (FB Hydrate Form 2 in MIBK, Maturation), “Crystalline Form 5”; in data set [2] (FB Hydrate Form 2 in MeCN/5% water, Crystallization in fridge), “Crystalline Form 5”; in data set [2] (FB Hydrate Form 2 in MeOH/anisole, Crystallization in fridge) it was “Crystalline Form 5”; in data set [2] (FB Hydrate Form 2 in THF, Crystallization in fridge) it was “Crystalline Form 5”; in data set [2] (FB Hydrate Form 2 in acetonitrile, Maturation), “Crystalline Form 5”. In data set [2] (FB Hydrate Form 2 in chloroform, Cooling in fridge yielded oil, maturation of oil), the XRPD result is “Crystalline Form 5”.
As to `COc1cc(-c2cccc3cc([C@H](C)Nc4nc(N)ncc4C#N)n(-c4ccccc4)c(=O)c23)ccn1` [Form 4 of Free Base Compound 1], the “GVS: moisture uptaken” value in data set [3] (between 70-90% RH, with hysteresis on desorption) came to 4.8 % w/w. Besides, in data set [3], the “GVS: moisture on loading” value is given as 0.3 % w/w and the “GVS: XRPD after the experiment” value is “No changes by XRPD after the experiment”.
In the case of `COc1cc(-c2cccc3cc([C@H](C)Nc4nc(N)ncc4C#N)n(-c4ccccc4)c(=O)c23)ccn1` [Form 6 of the free base of Compound 1], in data set [3] (text statements, listed as Form 6), the “GVS behaviour (hydration / desolvation)” value is recorded as “Desolvation to the anhydrous Form 4”. The “solid form after storage at elevated humidity” value in data set [1] (elevated humidity conditions, not specified in the sentence, listed as Form 6) is given as “conversion to Hydrate Form 3”.
Turning to `COc1cc(-c2cccc3cc([C@H](C)Nc4nc(N)ncc4C#N)n(-c4ccccc4)c(=O)c23)ccn1.O=C(O)/C=C\C(=O)O` [Maleic acid salt], the Solubility in data set [5] (0.1N HCl, 37° C., at saturation) is 34 mg/mL; in data set [5] (Simulated Gastric Fluid) it was >19 mg/mL; in data set [5] (Simulated Intestinal Fluid), 0.01 mg/mL; in data set [5] (Water (pH 4.43)) it was ~0.2 mg/mL (pH 4.43); in data set [5] (citrate buffer, pH 2.5, at 37° C.) it was 3.13 mg/mL at 37 °C; in data set [5] (citrate buffer, pH 2.5, at RT) it was 1.8 mg/mL at RT;. Also, the Solubility in data set [5] (pH 1.6, 37° C.) is listed as >4; in data set [5] (pH 1.6, RT), >4; in data set [5] (pH 2.5, 37° C.), 3.07; in data set [5] (pH 2.5, RT), 3.57; in data set [5] (pH 2.9, 37° C.), 1.62; in data set [5] (pH 2.9, RT), 1.39. Further, the Solubility in data set [5] (pH 3.8, 37° C.) stood at 0.31; in data set [5] (pH 3.8, RT) it was 0.24.
